{"source": "patent US20190040016A1", "about": "“INDOLE AND INDAZOLE COMPOUNDS AND THERAPEUTIC USES THEREOF” (REGENTS OF THE UNIVERSITY OF MINNESOTA, priority 2016, published 2019)", "key": {"[1]": {"test_system": "4T1 (a metastatic murine breast cancer cell line)", "test": "In vitro cytotoxicity evaluation, 4T1", "assay_type": "cell-based", "conditions": "Mus musculus; 4T1 cells; average ± SEM of minimum three individual experiments", "from_the_text": "(§1) […] Cell line MDA-MB-231 (a human triple negative breast cancer cell line) and cell line 4T1 (a metastatic murine breast cancer cell line) were used for testing."}, "[2]": {"test_system": "MDA-MB-231 (a human triple negative breast cancer cell line)", "test": "In vitro cytotoxicity evaluation, MDA-MB-231", "assay_type": "cell-based", "conditions": "MDA-MB-231 cells, average ± SEM of minimum three individual experiments", "from_the_text": "as §1"}}, "data": [{"smiles": "C=C(COC(=O)c1nn(-c2ccc(N(Cc3ccc(F)cc3)Cc3ccc(F)cc3)cc2)c2ccccc12)C(=O)OC", "note": "[Compound A-7]", "values": [{"measurement": "IC50", "setting": "[1]", "value": "10.8 ± 2.28", "unit": "µM"}, {"measurement": "IC50", "setting": "[2]", "value": "> 25", "unit": "µM"}]}, {"smiles": "COC(=O)c1nn(-c2ccc(N(Cc3ccccc3)Cc3ccccc3)cc2)c2ccccc12", "note": "[Compound A-2]", "values": [{"measurement": "IC50", "setting": "[1]", "value": "> 25", "unit": "µM"}, {"measurement": "IC50", "setting": "[2]", "value": "> 25", "unit": "µM"}]}, {"smiles": "COC(=O)C(O)(CO)COC(=O)c1nn(-c2ccc(N(Cc3ccc(F)cc3)Cc3ccc(F)cc3)cc2)c2ccccc12", "note": "(centres unmarked) [Compound A-8]", "values": [{"measurement": "IC50", "setting": "[1]", "value": "2.87 ± 0.86", "unit": "µM"}, {"measurement": "IC50", "setting": "[2]", "value": "3.02 ± 0.68", "unit": "µM"}]}, {"smiles": "C=C(COC(=O)c1nn(-c2ccc(N(Cc3ccc(OC)cc3)Cc3ccc(OC)cc3)cc2)c2ccccc12)C(=O)OC", "note": "[Compound A-9]", "values": [{"measurement": "IC50", "setting": "[1]", "value": "> 25", "unit": "µM"}, {"measurement": "IC50", "setting": "[2]", "value": "> 25", "unit": "µM"}]}, {"smiles": "C=C(COC(=O)c1nn(-c2ccc(N(Cc3ccccc3)Cc3ccccc3)cc2)c2ccccc12)C(=O)OC", "note": "[Compound A-3]", "values": [{"measurement": "IC50", "setting": "[1]", "value": "> 25", "unit": "µM"}, {"measurement": "IC50", "setting": "[2]", "value": "> 25", "unit": "µM"}]}, {"smiles": "O=C(O)c1nn(-c2ccc(N(Cc3ccccc3)Cc3ccccc3)cc2)c2ccccc12", "note": "[Compound A-1]", "values": [{"measurement": "IC50", "setting": "[1]", "value": "> 25", "unit": "µM"}, {"measurement": "IC50", "setting": "[2]", "value": "> 25", "unit": "µM"}]}, {"smiles": "COC(=O)C(O)(CO)COC(=O)c1nn(-c2ccc(N(Cc3ccccc3)Cc3ccccc3)cc2)c2ccccc12", "note": "(centres unmarked) [Compound A-4]", "values": [{"measurement": "IC50", "setting": "[1]", "value": "4.9 ± 0.42", "unit": "µM"}, {"measurement": "IC50", "setting": "[2]", "value": "2.33 ± 0.48", "unit": "µM"}]}, {"smiles": "C=C(COC(=O)c1nn(-c2ccc(N(Cc3ccc(Cl)cc3)Cc3ccc(Cl)cc3)cc2)c2ccccc12)C(=O)OC", "note": "[Compound A-5]", "values": [{"measurement": "IC50", "setting": "[1]", "value": "> 25", "unit": "µM"}, {"measurement": "IC50", "setting": "[2]", "value": "> 25", "unit": "µM"}]}, {"smiles": "COC(=O)C(O)(CO)COC(=O)c1nn(-c2ccc(N(Cc3ccc(OC)cc3)Cc3ccc(OC)cc3)cc2)c2ccccc12", "note": "(centres unmarked) [Compound A-10]", "values": [{"measurement": "IC50", "setting": "[1]", "value": "7.12 ± 1.13", "unit": "µM"}, {"measurement": "IC50", "setting": "[2]", "value": "4.96 ± 1.19", "unit": "µM"}]}, {"smiles": "COC(=O)C(O)(CO)COC(=O)c1nn(-c2ccc(N(Cc3ccc(Cl)cc3)Cc3ccc(Cl)cc3)cc2)c2ccccc12", "note": "(centres unmarked) [Compound A-6]", "values": [{"measurement": "IC50", "setting": "[1]", "value": "4.8 ± 1.01", "unit": "µM"}, {"measurement": "IC50", "setting": "[2]", "value": "4.51 ± 0.95", "unit": "µM"}]}]}
